{"source": "patent US20060183759A1", "about": "“Tissue transglutaminase inhibitors” (priority 2004, published 2006)", "key": {"[1]": {"target": "T1, transglutaminase 2 (TGase 2) (Homo sapiens, UniProt P21980)", "T1 sequence (P21980 1-687)": "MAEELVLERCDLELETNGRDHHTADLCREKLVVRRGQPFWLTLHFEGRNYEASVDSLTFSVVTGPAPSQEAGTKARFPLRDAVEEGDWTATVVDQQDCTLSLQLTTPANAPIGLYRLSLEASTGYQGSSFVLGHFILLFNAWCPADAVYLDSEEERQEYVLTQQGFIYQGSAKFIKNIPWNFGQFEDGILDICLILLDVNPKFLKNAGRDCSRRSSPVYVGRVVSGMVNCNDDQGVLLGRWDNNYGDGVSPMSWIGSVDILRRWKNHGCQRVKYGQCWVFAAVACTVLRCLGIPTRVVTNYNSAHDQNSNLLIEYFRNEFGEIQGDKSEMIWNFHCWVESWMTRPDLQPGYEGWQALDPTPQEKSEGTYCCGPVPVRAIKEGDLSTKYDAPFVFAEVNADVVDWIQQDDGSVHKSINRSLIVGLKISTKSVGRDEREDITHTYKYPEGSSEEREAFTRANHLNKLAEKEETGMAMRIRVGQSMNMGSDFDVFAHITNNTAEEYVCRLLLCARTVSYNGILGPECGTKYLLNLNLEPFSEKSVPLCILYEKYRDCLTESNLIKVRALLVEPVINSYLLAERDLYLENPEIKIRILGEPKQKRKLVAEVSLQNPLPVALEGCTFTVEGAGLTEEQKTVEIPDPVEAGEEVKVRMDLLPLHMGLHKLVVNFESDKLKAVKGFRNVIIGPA", "assay": "TGase 2 transpeptidase fluorescence assay: incorporation of KXD into N,N-dimethylated-casein (Std and FPC formats)", "format": "biochemical", "conditions": "standard format (Std): reactions terminated after 60 min, FI recorded, four-parameter fit"}, "[2]": {"target": "T1, transglutaminase 2 (TGase 2)", "assay": "TGase 2 transpeptidase fluorescence assay: incorporation of KXD into N,N-dimethylated-casein (Std and FPC formats)", "format": "biochemical", "conditions": "for TGase 2 inhibitory activity, SAR comment in words (relative to parent compound): qualitative comparison", "protocol": "Transpeptidase activity was monitored as the increase in fluorescence intensity (FI) that accompanies incorporation of the dansylated Lys derivative, α-N-Boc-Lys-CH2-CH2-dansyl (KXD), into the protein substrate, N,N-dimethylated-casein (NMC).\nTherefore, a method was used in which full progress curves (FPC) were recorded for the TGase-catalyzed reaction of KXD with NMC in the presence of inhibitor (Table 1-4). Reactions were initiated by enzyme addition to a solution of substrate and inhibitor. […] From such progress curves, IC50 values were calculated using the following equation: IC50=[I]/{(vc/vss)−1}. Progress curves recorded at several inhibitor concentrations were used to determine FPC IC50 values (Table 1-4)."}, "[3]": {"conditions": "full progress curves (FPC), IC50=[I]/{(vc/vss)−1}, from steady-state velocity, read-out: IC50 (μM, FPC)"}, "[4]": {"conditions": "summary of FPC values, read-out: FPC IC50 values"}}, "note": "Read-outs that look alike come from different tables or passages of the source."}
{"smiles": "NNC(=O)CSc1nc2scc(-c3ccc(F)cc3)c2c(=O)n1-c1ccccc1", "note": "[986-08, [5-(4-Fluorophenyl)-4-oxo-3-phenyl-3,4-dihydrothieno[2,3-d]pyrimidin-2-ylsulfanyl]acetic acid hydrazide]", "values": [{"measurement": "IC50", "setting": "[1]", "result": 0.8, "unit": "µM"}, {"measurement": "IC50", "setting": "[2]; [3]", "result": 0.29, "unit": "µM"}]}
{"smiles": "NNC(=O)CSc1nc2scc(-c3ccccc3)c2c(=O)n1-c1ccccc1F", "note": "[986-18, [3-(2-Fluorophenyl)-4-oxo-5-phenyl-3,4-dihydrothieno[2,3-d]pyrimidin-2-ylsulfanyl]acetic acid hydrazide]", "values": [{"measurement": "IC50", "setting": "[1]", "result": 0.5, "unit": "µM"}, {"measurement": "IC50", "setting": "[2]; [3]", "result": 0.16, "unit": "µM"}]}
{"smiles": "NNC(=O)CSc1nc2scc(-c3ccccc3)c2c(=O)n1-c1ccccc1", "note": "[986-01, (4-Oxo-3,5-diphenyl-3,4-dihydro-thieno[2,3-d]pyrimidin-2-ylsulfanyl)acetic acid hydrazide]", "values": [{"measurement": "IC50", "setting": "[1]", "result": 0.8, "unit": "µM"}, {"measurement": "IC50", "setting": "[2]; [3]", "result": 0.25, "unit": "µM"}]}
{"smiles": "NNC(=O)CSc1nc2scc(-c3ccccc3)c2c(=O)n1-c1cc(F)ccc1F", "note": "[986-26, [3-(2,5-Difluorophenyl)-4-oxo-5-phenyl-3,4-dihydrothieno[2,3-d]pyrimidin-2-ylsulfanyl]acetic acid hydrazide]", "values": [{"measurement": "IC50", "setting": "[1]", "result": 0.59, "unit": "µM"}, {"measurement": "IC50", "setting": "[2]; [3]", "result": 0.23, "unit": "µM"}]}
{"smiles": "NNC(=O)CSc1nc2scc(-c3ccccc3)c2c(=O)n1-c1cc(F)cc(F)c1", "note": "[986-27, [3-(3,5-Difluorophenyl)-4-oxo-5-phenyl-3,4-dihydrothieno[2,3-d]pyrimidin-2-ylsulfanyl]acetic acid hydrazide]", "values": [{"measurement": "IC50", "setting": "[1]", "result": 0.48, "unit": "µM"}, {"measurement": "IC50", "setting": "[2]; [3]", "result": 0.22, "unit": "µM"}]}
{"smiles": "NNC(=O)CSc1nc2scc(-c3ccc(F)cc3)c2c(=O)n1-c1ccc(F)cc1", "note": "[986-09, [3,5-Bis-(4-fluorophenyl)-4-oxo-3,4-dihydrothieno[2,3-d]pyrimidin-2-ylsulfanyl]acetic acid hydrazide]", "values": [{"measurement": "IC50", "setting": "[1]", "result": 1.5, "unit": "µM"}, {"measurement": "IC50", "setting": "[2]; [3]", "result": 0.67, "unit": "µM"}]}
{"smiles": "NNC(=O)CSc1nc2sc(-c3ccccc3)cc2c(=O)n1-c1ccccc1", "note": "[986-29, (4-Oxo-3,6-diphenyl-3,4-dihydrothieno[2,3-d]pyrimidin-2-ylsulfanyl)acetic acid hydrazide]", "values": [{"measurement": "IC50", "setting": "[1]", "result": "> 20", "unit": "µM"}, {"measurement": "TGase 2 inhibitory activity, SAR comment in words (relative to parent compound)", "setting": "[2]", "result": "loss of inhibitory activity"}]}
{"smiles": "Cc1sc2nc(SCC(=O)NN)n(-c3ccccc3)c(=O)c2c1-c1ccccc1", "note": "[986-13, (6-Methyl-4-oxo-3,5-diphenyl-3,4-dihydrothieno[2,3-d]pyrimidin-2-ylsulfanyl)acetic acid hydrazide]", "values": [{"measurement": "IC50", "setting": "[1]", "result": 1.5, "unit": "µM"}, {"measurement": "IC50", "setting": "[2]; [3]", "result": 0.16, "unit": "µM"}, {"measurement": "TGase 2 inhibitory activity, SAR comment in words (relative to parent compound)", "setting": "[2]", "result": "increased activity"}, {"measurement": "IC50", "setting": "[2]; [4]", "result": "< 0.16", "unit": "µM"}]}
{"smiles": "COc1cccc(-n2c(SCC(=O)NN)nc3scc(-c4ccccc4)c3c2=O)c1", "note": "[986-21, [3-(3-Methoxyphenyl)-4-oxo-5-phenyl-3,4-dihydrothieno[2,3-d]pyrimidin-2-ylsulfanyl]acetic acid hydrazide]", "values": [{"measurement": "IC50", "setting": "[1]", "result": 0.82, "unit": "µM"}, {"measurement": "IC50", "setting": "[2]; [3]", "result": 0.47, "unit": "µM"}]}
{"smiles": "NNC(=O)CSc1nc2ccccc2c(=O)n1-c1ccccc1", "note": "[986-03, (4-Oxo-3-phenyl-3,4-dihydroquinazolin-2-ylsulfanyl)acetic acid hydrazide]", "values": [{"measurement": "IC50", "setting": "[1]", "result": 18, "unit": "µM"}, {"measurement": "TGase 2 inhibitory activity, SAR comment in words (relative to parent compound)", "setting": "[2]", "result": "decreased activity"}]}
{"smiles": "NNC(=O)CSc1nc2scc(-c3ccccc3)c2c(=O)n1-c1ccc(F)cc1", "note": "[986-07, [3-(4-Fluorophenyl)-4-oxo-5-phenyl-3,4-dihydrothieno[2,3-d]pyrimidin-2-ylsulfanyl]acetic acid hydrazide]", "values": [{"measurement": "IC50", "setting": "[1]", "result": 1.3, "unit": "µM"}, {"measurement": "IC50", "setting": "[2]; [3]", "result": 0.32, "unit": "µM"}]}
{"smiles": "NNC(=O)COc1nc2scc(-c3ccccc3)c2c(=O)n1-c1ccccc1", "note": "[986-30, (4-Oxo-3,5-diphenyl-3,4-dihydrothieno[2,3-d]pyrimidin-2-yloxy)acetic acid hydrazide]", "values": [{"measurement": "IC50", "setting": "[1]", "result": 4.5, "unit": "µM"}, {"measurement": "TGase 2 inhibitory activity, SAR comment in words (relative to parent compound)", "setting": "[2]", "result": "decreased activity"}]}
{"smiles": "Cc1csc2nc(SCC(=O)NN)n(-c3ccc(F)cc3)c(=O)c12", "note": "[986-11, [3-(4-Fluorophenyl)-5-methyl-4-oxo-3,4-dihydrothieno[2,3-d]pyrimidin-2-ylsulfanyl]acetic acid hydrazide]", "values": [{"measurement": "IC50", "setting": "[1]", "result": 6.3, "unit": "µM"}]}
{"smiles": "Cc1sc2nc(SCCC(=O)NN)n(-c3ccccc3)c(=O)c2c1-c1ccccc1", "note": "[986-22, 3-(6-Methyl-4-oxo-3,5-diphenyl-3,4-dihydrothieno[2,3-d]pyrimidin-2-ylsulfanyl)propionic acid hydrazide]", "values": [{"measurement": "IC50", "setting": "[1]", "result": 1.3, "unit": "µM"}, {"measurement": "TGase 2 inhibitory activity, SAR comment in words (relative to parent compound)", "setting": "[2]", "result": "diminished activity"}]}
{"smiles": "COc1cccc(-c2csc3nc(SCC(=O)NN)n(-c4cccc(F)c4)c(=O)c23)c1", "note": "[986-32, [3-(3-Fluorophenyl)-5-(3-methoxyphenyl)-4-oxo-3,4-dihydrothieno[2,3-d]pyrimidin-2-ylsulfanyl]acetic acid hydrazide]", "values": [{"measurement": "IC50", "setting": "[1]", "result": 0.21, "unit": "µM"}, {"measurement": "IC50", "setting": "[2]; [3]", "result": 0.14, "unit": "µM"}, {"measurement": "IC50", "setting": "[2]; [4]", "result": "< 0.16", "unit": "µM"}]}
{"smiles": "NNC(=O)CSc1nc2scc(-c3ccccc3)c2c(=O)n1C1CCCCC1", "note": "[986-17, (3-Cyclohexyl-4-oxo-5-phenyl-3,4-dihydrothieno[2,3-d]pyrimidin-2-ylsulfanyl)acetic acid hydrazide]", "values": [{"measurement": "IC50", "setting": "[1]", "result": 2.6, "unit": "µM"}]}
{"smiles": "NNC(=O)CSc1nc2scc(-c3ccccc3)c2c(=O)n1-c1cccc(F)c1", "note": "[986-19, [3-(3-Fluorophenyl)-4-oxo-5-phenyl-3,4-dihydrothieno[2,3-d]pyrimidin-2-ylsulfanyl]acetic acid hydrazide]", "values": [{"measurement": "IC50", "setting": "[1]", "result": 0.25, "unit": "µM"}, {"measurement": "IC50", "setting": "[2]; [3]", "result": 0.18, "unit": "µM"}, {"measurement": "IC50", "setting": "[2]; [4]", "result": "< 0.16", "unit": "µM"}]}
{"smiles": "CNNC(=O)CSc1nc2scc(-c3ccc(F)cc3)c2c(=O)n1-c1ccc(F)cc1", "note": "[986-51, [3,5-Bis-(4-fluorophenyl)-4-oxo-3,4-dihydrothieno[2,3-d]pyrimidin-2-ylsulfanyl]acetic acid N′-methylhydrazide]", "values": [{"measurement": "IC50", "setting": "[1]", "result": "> 20", "unit": "µM"}]}
{"smiles": "CCOC(=O)CSc1nc2scc(-c3ccccc3)c2c(=O)n1-c1ccc(F)cc1", "note": "[986-58, [3-(4-Fluorophenyl)-4-oxo-5-phenyl-3,4-dihydrothieno[2,3-d]pyrimidin-2-ylsulfanyl]acetic acid ethyl ester]", "values": [{"measurement": "IC50", "setting": "[1]", "result": "> 20", "unit": "µM"}]}
{"smiles": "CCCN1CCc2c(sc3nc(SCC(=O)NN)n(-c4cccc(F)c4)c(=O)c23)C1", "note": "[986-49, [3-(3-Fluorophenyl)-4-oxo-7-propyl-3,4,5,6,7,8-hexahydro-9-thia-1,3,7-triazafluoren-2-ylsulfanyl]acetic acid hydrazide]", "values": [{"measurement": "IC50", "setting": "[1]", "result": 6, "unit": "µM"}]}
{"smiles": "CCN(CC)CCCOc1ccccc1-c1csc2nc(SCC(=O)NN)n(-c3cccc(F)c3)c(=O)c12", "note": "[986-35, [5-[2-(3-Diethylaminopropoxy)phenyl]-3-(3-fluorophenyl)-4-oxo-3,4-dihydrothieno[2,3-d]pyrimidin-2-ylsulfanyl]acetic acid hydrazide]", "values": [{"measurement": "IC50", "setting": "[1]", "result": 4.8, "unit": "µM"}, {"measurement": "TGase 2 inhibitory activity, SAR comment in words (relative to parent compound)", "setting": "[2]", "result": "decreased inhibitory activity"}]}
{"smiles": "NC(=O)CSc1nc2scc(-c3ccccc3F)c2c(=O)n1-c1cccc(F)c1", "note": "[986-53, 2-[3-(3-Fluorophenyl)-5-(2-fluorophenyl)-4-oxo-3,4-dihydrothieno[2,3-d]pyrimidin-2-ylsulfanyl]acetamide]", "values": [{"measurement": "IC50", "setting": "[1]", "result": "> 10", "unit": "µM"}]}
{"smiles": "Cn1c(SCC(=O)NN)nc2scc(-c3ccccc3)c2c1=O", "note": "[986-10, (3-Methyl-4-oxo-5-phenyl-3,4-dihydrothieno[2,3-d]pyrimidin-2-ylsulfanyl)acetic acid hydrazide]", "values": [{"measurement": "IC50", "setting": "[1]", "result": 8.4, "unit": "µM"}]}
{"smiles": "NNC(=O)CSc1nc2sc3c(c2c(=O)n1-c1cccc(F)c1)C(c1ccccc1)CCC3", "note": "(stereo not shown) [986-44, [3-(3-Fluorophenyl)-4-oxo-5-phenyl-3,4,5,6,7,8-hexahydrobenzo[4,5]thieno[2,3-d]pyrimidin-2-ylsulfanyl]acetic acid hydrazide]", "values": [{"measurement": "IC50", "setting": "[1]", "result": 0.93, "unit": "µM"}, {"measurement": "IC50", "setting": "[2]; [3]", "result": 0.17, "unit": "µM"}]}
{"smiles": "COc1ccc(-n2c(SCC(=O)NN)nc3scc(-c4ccccc4)c3c2=O)cc1", "note": "[986-15, [3-(4-Methoxyphenyl)-4-oxo-5-phenyl-3,4-dihydrothieno[2,3-d]pyrimidin-2-ylsulfanyl]acetic acid hydrazide]", "values": [{"measurement": "IC50", "setting": "[1]", "result": 2.1, "unit": "µM"}]}
